Like-named read-outs stand apart in the source and are kept apart here. One block for each compound: values may come before it.
Molecular target: T1, cloned human dopamine D3 receptors (Homo sapiens, UniProt P35462)
T1 construct: expressed in transfected cells; membrane homogenate
Assay: [N-Methyl-3H]Spiroperidol binding to cloned human dopamine D3 receptors (Protocol 1)
In short: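 Membranes from CHO cells stably expressing cloned human D3 receptor were used for [N-methyl-3H]spiroperidol (60-90 Ci/mmol) binding. Assay buffer was 0.05 M Tris HCl pH 7.7 with 120 mM NaCl, 5 mM KCl, 2 mM CaCl2 and 1 mM MgCl2, optionally 0.1% ascorbic acid; total ligand concentration calculated from added CPM.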

[1] = the 13th table, unit inferred, read-out: D3Ki
[2] = the 14th table, read-out: D3 Ki

T1 sequence (P35462 whole entry): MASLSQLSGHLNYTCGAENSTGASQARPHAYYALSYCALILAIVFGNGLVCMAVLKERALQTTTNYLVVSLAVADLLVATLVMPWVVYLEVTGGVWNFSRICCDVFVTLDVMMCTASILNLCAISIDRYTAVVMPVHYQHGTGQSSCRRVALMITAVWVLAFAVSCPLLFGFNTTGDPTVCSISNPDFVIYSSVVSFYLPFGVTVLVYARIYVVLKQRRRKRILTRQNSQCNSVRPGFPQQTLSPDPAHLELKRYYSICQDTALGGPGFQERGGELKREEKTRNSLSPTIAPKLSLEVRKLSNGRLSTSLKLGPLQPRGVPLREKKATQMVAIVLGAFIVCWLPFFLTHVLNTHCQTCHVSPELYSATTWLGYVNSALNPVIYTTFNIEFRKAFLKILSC

SMILES: O=C(NCCCCN1CCN(c2c(Cl)sc3cc(F)ccc23)CC1)c1cc2ccccc2s1 [compound 815064]
- Ki (read-out: D3K1): 1.9 nM

SMILES: COc1ccccc1C(=O)NCCCCN1CCN(c2c(Cl)sc3cc(F)ccc23)CC1 [compound 815066]
- Ki (read-out: D3K1): 28.7 nM

SMILES: O=C(NCCCCN1CCN(c2c(Cl)sc3cc(F)ccc23)CC1)c1ccccc1Br [compound 815070]
- Ki (read-out: D3K1): 34.4 nM

SMILES: O=C(NCCCCN1CCN(c2c(Cl)sc3cc(F)ccc23)CC1)C1CCCC1 [compound 815071]
- Ki (read-out: D3K1): 7.2 nM

SMILES: O=C(NCCCCN1CCC(c2noc3ccsc23)CC1)c1cc2ccccc2s1 [compound 815147]
- Ki [1]: 371 nM

SMILES: O=C(NCCCCN1CCC(c2noc3ccsc23)CC1)c1ccc(Cl)cc1 [compound 815151]
- Ki [1]: 136 nM

SMILES: CCOc1ccc(C(=O)NCCCCN2CCC(c3noc4ccsc34)CC2)cc1 [compound 815152]
- Ki [1]: 158 nM

SMILES: COc1cc(OC)cc(C(=O)NCCCCN2CCN(c3csc4cc(C(F)(F)F)ccc34)CC2)c1 [compound 815543]
- Ki (read-out: D3K1): 32 nM

SMILES: O=C(NCCCCN1CCN(c2csc3cc(C(F)(F)F)ccc23)CC1)c1ccc(-c2ccccc2)cc1 [compound 815547]
- Ki (read-out: D3K1): 4.4 nM

SMILES: O=C(NCCCCN1CCN(c2csc3cc(C(F)(F)F)ccc23)CC1)c1ccc([N+](=O)[O-])cc1 [compound 815549]
- Ki (read-out: D3K1): 2.1 nM

SMILES: CCCCCOc1ccc(C(=O)NCCCCN2CCN(c3csc4cc(C(F)(F)F)ccc34)CC2)cc1 [compound 815552]
- Ki (read-out: D3K1): 140 nM

SMILES: O=C(NCCCCN1CCN(c2csc3cc(C(F)(F)F)ccc23)CC1)c1ccccc1C(F)(F)F [compound 815553]
- Ki (read-out: D3K1): 41 nM

SMILES: O=C(NCCCCN1CCN(c2csc3cc(C(F)(F)F)ccc23)CC1)c1ccccc1Br [compound 815558]
- Ki (read-out: D3K1): 23 nM

SMILES: O=C(NCCCCN1CCN(c2csc3cc(C(F)(F)F)ccc23)CC1)C1CCCC1 [compound 815559]
- Ki (read-out: D3K1): 13.5 nM

SMILES: COc1ccc(C(=O)N[C@@H](CO)CCCN2CCN(c3csc4cc(C(F)(F)F)ccc34)CC2)cc1OC [compound 815665]
- Ki (read-out: D3K1): 163 nM
- Ki [2]: 163 nM

SMILES: CC(=O)Nc1ccc(C(=O)N[C@@H](CO)CCCN2CCN(c3csc4cc(C(F)(F)F)ccc34)CC2)cc1 [compound 815667]
- Ki (read-out: D3K1): 203 nM
- Ki [2]: 203 nM

SMILES: COc1ccc(C(=O)N[C@@H](CO)CCCN2CCN(c3csc4cc(C(F)(F)F)ccc34)CC2)cc1 [compound 815668]
- Ki (read-out: D3K1): 150 nM
- Ki [2]: 150 nM

SMILES: O=C(N[C@@H](CO)CCCN1CCN(c2csc3cc(C(F)(F)F)ccc23)CC1)c1ccc(-c2ccccc2)cc1 [compound 815670]
- Ki (read-out: D3K1): 192 nM
- Ki [2]: 192 nM

SMILES: Cc1ccc(C(=O)N[C@@H](CO)CCCN2CCN(c3csc4cc(C(F)(F)F)ccc34)CC2)cc1 [compound 815671]
- Ki (read-out: D3K1): 309 nM
- Ki [2]: 309 nM

SMILES: O=C(N[C@@H](CO)CCCN1CCN(c2csc3cc(C(F)(F)F)ccc23)CC1)c1cc2ccccc2[nH]1 [compound 815674]
- Ki (Table 2, read-out: D3K1): 314 nM
- Ki (read-out: D3K1): 314 nM
- Ki [2]: 314 nM

SMILES: O=C(N[C@@H](CO)CCCN1CCN(c2csc3cc(C(F)(F)F)ccc23)CC1)c1ccc2[nH]ccc2c1 [compound 815676]
- Ki (Table 2, read-out: D3K1): 224 nM
- Ki (read-out: D3K1): 224 nM
- Ki [2]: 224 nM

SMILES: O=C(N[C@@H](CO)CCCN1CCN(c2csc3cc(C(F)(F)F)ccc23)CC1)c1cc2ccccc2o1 [compound 815677]
- Ki (Table 2, read-out: D3K1): 297 nM
- Ki (read-out: D3K1): 297 nM
- Ki [2]: 297 nM

SMILES: O=C(N[C@@H](CO)CCCN1CCN(c2csc3cc(C(F)(F)F)ccc23)CC1)c1ccc(Br)cc1 [compound 815679]
- Ki (Table 2, read-out: D3K1): 129 nM
- Ki (read-out: D3K1): 129 nM
- Ki [2]: 129 nM

SMILES: CCn1cc(C(=O)N[C@@H](CO)CCCN2CCN(c3csc4cc(C(F)(F)F)ccc34)CC2)c(=O)c2ccc(C)nc21 [compound 815680]
- Ki (Table 2, read-out: D3K1): 197 nM
- Ki (read-out: D3K1): 197 nM
- Ki [2]: 197 nM

SMILES: CSc1ncccc1C(=O)N[C@@H](CO)CCCN1CCN(c2csc3cc(C(F)(F)F)ccc23)CC1 [compound 815681]
- Ki (Table 2, read-out: D3K1): 261 nM
- Ki (read-out: D3K1): 261 nM
- Ki [2]: 261 nM

SMILES: O=C(NC(CO)CCCN1CCN(c2csc3cc(C(F)(F)F)ccc23)CC1)c1cc2ccccc2s1 (stereo not drawn) [compound 815684]
- Ki (Table 2, read-out: D3K1): 208 nM
- Ki (read-out: D3K1): 208 nM
- Ki [2]: 208 nM

Next, values leading:

- Ki (read-out: D3K1): 3.6 nM
SMILES: O=C(NCCCCN1CCN(c2c(Cl)sc3cc(F)ccc23)CC1)c1ccc([N+](=O)[O-])cc1 [compound 815061]

- Ki (read-out: D3K1): 4.1 nM
SMILES: COc1ccc(C(=O)NCCCCN2CCN(c3c(Cl)sc4cc(F)ccc34)CC2)cc1OC [compound 815062]

- Ki (read-out: D3K1): 6.3 nM
SMILES: O=C(NCCCCN1CCN(c2c(Cl)sc3cc(F)ccc23)CC1)c1ccc(Br)cc1 [compound 815063]

- Ki (read-out: D3K1): 43.8 nM
SMILES: O=C(NCCCCN1CCN(c2c(Cl)sc3cc(F)ccc23)CC1)c1ccccc1C(F)(F)F [compound 815065]

- Ki (read-out: D3K1): 20.1 nM
SMILES: O=C(NCCCCN1CCN(c2c(Cl)sc3cc(F)ccc23)CC1)c1ccc(C(F)(F)F)cc1 [compound 815067]

- Ki (read-out: D3K1): 4.9 nM
SMILES: O=C(NCCCCN1CCN(c2c(Cl)sc3cc(F)ccc23)CC1)c1ccco1 [compound 815068]

- Ki (read-out: D3K1): 15 nM
SMILES: O=C(NCCCCN1CCN(c2c(Cl)sc3cc(F)ccc23)CC1)c1c(F)cccc1F [compound 815069]

- Ki (read-out: D3K1): 6.9 nM
SMILES: COc1ccc(C(=O)NCCCCN2CCN(c3csc4cc(C(F)(F)F)ccc34)CC2)cc1OC [compound 815550]

- Ki (read-out: D3K1): 22 nM
SMILES: CCOc1ccc(C(=O)NCCCCN2CCN(c3c(Cl)sc4cc(C(F)(F)F)ccc34)CC2)cc1 [compound 815560]

- Ki (read-out: D3K1): 41 nM
SMILES: O=C(NCCCCN1CCN(c2c(Cl)sc3cc(C(F)(F)F)ccc23)CC1)c1ccc(F)cc1F [compound 815561]

- Ki (read-out: D3K1): 21 nM
SMILES: O=C(NCCCCN1CCN(c2c(Cl)sc3cc(C(F)(F)F)ccc23)CC1)c1ccc2c(c1)OCO2 [compound 815563]

- Ki (read-out: D3K1): 159 nM
SMILES: CCCCOc1ccc(C(=O)NCCCCN2CCN(c3c(Cl)sc4cc(C(F)(F)F)ccc34)CC2)cc1 [compound 815564]

- Ki (read-out: D3K1): 32 nM
SMILES: O=C(NCCCCN1CCN(c2c(Cl)sc3cc(C(F)(F)F)ccc23)CC1)c1cccs1 [compound 815566]

- Ki (read-out: D3K1): 30 nM
SMILES: O=C(NCCCCN1CCN(c2c(Cl)sc3cc(C(F)(F)F)ccc23)CC1)c1ccc(Cl)cc1 [compound 815568]

- Ki (read-out: D3K1): 13 nM
SMILES: O=C(NCCCCN1CCN(c2c(Cl)sc3cc(C(F)(F)F)ccc23)CC1)c1ccc([N+](=O)[O-])cc1 [compound 815569]

- Ki (read-out: D3K1): 30 nM
SMILES: COc1ccc(C(=O)NCCCCN2CCN(c3c(Cl)sc4cc(C(F)(F)F)ccc34)CC2)cc1OC [compound 815570]

- Ki (read-out: D3K1): 34.2 nM
SMILES: O=C(NCCCCN1CCN(c2c(Cl)sc3cc(C(F)(F)F)ccc23)CC1)c1ccc(Br)cc1 [compound 815571]

- Ki (read-out: D3K1): 35 nM
SMILES: O=C(NCCCCN1CCN(c2c(Cl)sc3cc(C(F)(F)F)ccc23)CC1)c1ccccc1C(F)(F)F [compound 815573]

- Ki (read-out: D3K1): 53 nM
SMILES: COc1ccccc1C(=O)NCCCCN1CCN(c2c(Cl)sc3cc(C(F)(F)F)ccc23)CC1 [compound 815574]

- Ki (read-out: D3K1): 50 nM
SMILES: O=C(NCCCCN1CCN(c2c(Cl)sc3cc(C(F)(F)F)ccc23)CC1)c1ccc(C(F)(F)F)cc1 [compound 815575]

- Ki (read-out: D3K1): 63 nM
SMILES: O=C(NCCCCN1CCN(c2c(Cl)sc3cc(C(F)(F)F)ccc23)CC1)c1ccco1 [compound 815576]

- Ki (read-out: D3K1): 95 nM
SMILES: O=C(NCCCCN1CCN(c2c(Cl)sc3cc(C(F)(F)F)ccc23)CC1)c1c(F)cccc1F [compound 815577]

- Ki (read-out: D3K1): 117 nM
SMILES: O=C(NCCCCN1CCN(c2c(Cl)sc3cc(C(F)(F)F)ccc23)CC1)c1ccccc1Br [compound 815578]

- Ki (read-out: D3K1): 104 nM
SMILES: O=C(NCCCCN1CCN(c2c(Cl)sc3cc(C(F)(F)F)ccc23)CC1)C1CCCC1 [compound 815579]

Source: patent publication US7550469B2, “Heterocyclic amide derivatives and their use as dopamine D3 receptor ligands” (Aventis Pharmaceuticals Inc., priority 2001, dated 2009)
